US6358885B1, “Substituted phenylheterocyclic herbicides” (Mississippi State University, priority 1992, dated 2002)

Experiments:
lambsquarters = assay: Test B preemergence/postemergence greenhouse plant response rating 0 to 10; format: in vivo, Chenopodium album; settings: 0 to 10 scale
Outline: (§1)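 Postemergence treatment of plants two to eighteen cm tall ran alongside preemergence treatment of planted seed, each using compound in a non-phytotoxic solvent.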

pigweed = assay: Test C preemergence/postemergence greenhouse plant response rating 0 to 100; format: in vivo, Amaranthusretroflexus; settings: POSTEMERGENCE; for Plant response rating Pigweed: 0 to 100 scale
From the text: (§2) The compounds evaluated in this test were formulated in a non-phytoxic solvent and applied to the soil surface before plant seedlings emerged (preemergence application), to water that covered the soil surface (flood application), and to plants that were in the one-to-four leaf stage (postemergence application). A sandy loam soil was used for the preemergence and postemergence tests, while a silt loam soil was used in the flood test. Water depth was approximately 2.5 cm for the flood test and was maintained at this level for the duration of the test. Plant species in the preemergence and postemergence tests consisted of barley (Hordeum vulgare), bedstraw (Galium aparine), blackgrass (Alopecurus myosuroides), chickweed (Stellaria media), corn (Zea mays), cotton (Gossypium hirsutum), crabgrass (Digitaria sanguinalis), downy brome (Bromus tectorum), giant foxtail (Setaria faberii), lambsquarters (Chenopodium album), morningglory (Ipomoea hederacea), pigweed ([…]), rape (Brassica napus), ryegrass (Lolium multiflorum), sorghum (Sorghum bicolor), soybean (Glycine max), speedwell (Veronica persica), sugar beet (Beta vulgaris), velvetleaf (Abutilon theophrasti), wheat (Triticum aestivum), wild buckwheat (Polygonum convolvulus), and wild oat (Avena fatua). All plant species were planted one day before application of the compound for the preemergence portion-of this test. Plantings of these species were adjusted to produce plants of appropriate size for the post-emergence portion of the test. […] All plant species were grown using normal greenhouse practices. Visual evaluations of injury expressed on treated plants, when compared to untreated controls, were recorded approximately fourteen to twenty one days after application of the test compound. […] A dash (-) response means no test result.

velvetleaf [1] = assay: as above; format: in vivo, Abutilon theophrasti; settings: POSTEMERGENCE; for Plant response rating, Velvetleaf: 0 to 100 scale
From the text: as §2

rice = assay: Test C flood test plant response rating 0 to 100; format: in vivo, Oryza sativa; settings: for Plant response rating Rice Japonica: flood test species listed under POSTEMERGENCE, 0 to 100 scale
From the text: as §2

crabgrass = assay: Test C preemergence/postemergence greenhouse plant response rating 0 to 100; format: in vivo, Digitaria sanguinalis; settings: POSTEMERGENCE; for Plant response rating, Crabgrass: 0 to 100 scale
From the text: as §2

velvetleaf [2] = assay: Test B preemergence/postemergence greenhouse plant response rating 0 to 10; format: in vivo, Abutilon theophrasti; settings: 0 to 10 scale
Outline: as §1

cotton = assay: Test C preemergence/postemergence greenhouse plant response rating 0 to 100; format: in vivo, Gossypium hirsutum; settings: POSTEMERGENCE; for Plant response rating, Cotton: 0 to 100 scale
From the text: as §2

barnyardgrass = assay: Test B preemergence/postemergence greenhouse plant response rating 0 to 10; format: in vivo, Echinochloa crus-galli; settings: 0 to 10 scale
Outline: as §1

sorghum = assay: Test C preemergence/postemergence greenhouse plant response rating 0 to 100; format: in vivo, Sorghum bicolor; settings: POSTEMERGENCE; for Plant response rating, Sorghum: 0 to 100 scale
From the text: as §2

wild oat = assay: as above; format: in vivo, Avena fatua; settings: POSTEMERGENCE; for Plant response rating, Wild oat: 0 to 100 scale
From the text: as §2

sugar beet = assay: Test B preemergence/postemergence greenhouse plant response rating 0 to 10; format: in vivo, Beta vulgaris; settings: 0 to 10 scale
Outline: as §1

giant foxtail = assay: as above; format: in vivo, Setaria faberii; settings: 0 to 10 scale
Outline: as §1

CCC(C)Oc1cc(-c2nn3c(c2Cl)CCCC3)c(F)cc1Cl (stereo not drawn) [Compound 48]
Plant response rating, Lambsquarter (lambsquarters; POSTEMERGENCE, Rate 50 g/ha): 10 | Plant response rating, Lambsquarter (lambsquarters; PREEMERGENCE, Rate 50 g/ha): 10 | Plant response rating, Lambsquarter (lambsquarters; Rate 200 g/ha, POSTEMERGENCE): 10 | Plant response rating, Lambsquarter (lambsquarters; Rate 200 g/ha, PREEMERGENCE): 10 | Plant response rating Pigweed (pigweed; 62 g/ha): 100 | Plant response rating Pigweed (pigweed; 250 g/ha): 100 | Plant response rating (0 to 100), Pigweed (pigweed; Rate 4 g/ha): 80 | Plant response rating (0 to 100), Pigweed (pigweed; Rate 16 g/ha): 90 | Plant response rating, Velvetleaf (velvetleaf [1]; 62 g/ha): 90 | Plant response rating, Velvetleaf (velvetleaf [1]; 250 g/ha): 90 | Plant response rating (0 to 100), Velvetleaf (velvetleaf [1]; Rate 4 g/ha): 30 | Plant response rating (0 to 100), Velvetleaf (velvetleaf [1]; Rate 16 g/ha): 80 | Plant response rating (0 to 100), Rice Japonica (rice; POSTEMERGENCE section, flood test, Rate 4 g/ha): 10 | Plant response rating (0 to 100), Rice Japonica (rice; Rate 16 g/ha, under POSTEMERGENCE head (flood test species)): 20 | Plant response rating Rice Japonica (rice; 62 g/ha): 30 | Plant response rating Rice Japonica (rice; 250 g/ha): 60 | Plant response rating, Crabgrass (crabgrass; 62 g/ha): 30 | Plant response rating, Crabgrass (crabgrass; 250 g/ha): 40 | Plant response rating (0 to 100), Crabgrass (crabgrass; Rate 4 g/ha): 10 | Plant response rating (0 to 100), Crabgrass (crabgrass; Rate 16 g/ha): 20 | Plant response rating, Velvetleaf (velvetleaf [2]; POSTEMERGENCE, Rate 50 g/ha): 9 | Plant response rating, Velvetleaf (velvetleaf [2]; PREEMERGENCE, Rate 50 g/ha): 0 | Plant response rating, Velvetleaf (velvetleaf [2]; Rate 200 g/ha, POSTEMERGENCE): 10 | Plant response rating, Velvetleaf (velvetleaf [2]; Rate 200 g/ha, PREEMERGENCE): 4 | Plant response rating, Cotton (cotton; 62 g/ha): 100 | Plant response rating, Cotton (cotton; 250 g/ha): 100 | Plant response rating (0 to 100), Cotton (cotton; Rate 4 g/ha): 90 | Plant response rating (0 to 100), Cotton (cotton; Rate 16 g/ha): 100 | Plant response rating, Barnyardgrass (barnyardgrass; POSTEMERGENCE, Rate 50 g/ha): 4 | Plant response rating, Barnyardgrass (barnyardgrass; POSTEMERGENCE, Rate 200 g/ha): 8 | Plant response rating, Barnyardgrass (barnyardgrass; PREEMERGENCE, Rate 50 g/ha): 2 | Plant response rating, Barnyardgrass (barnyardgrass; Rate 200 g/ha, PREEMERGENCE): 3 | Plant response rating, Sorghum (sorghum; 62 g/ha): 50 | Plant response rating, Sorghum (sorghum; 250 g/ha): 70 | Plant response rating (0 to 100), Sorghum (sorghum; Rate 4 g/ha): 30 | Plant response rating (0 to 100), Sorghum (sorghum; Rate 16 g/ha): 40 | Plant response rating, Wild oat (wild oat; 62 g/ha): 40 | Plant response rating, Wild oat (wild oat; 250 g/ha): 60 | Plant response rating (0 to 100), Wild oat (wild oat; Rate 4 g/ha): 20 | Plant response rating (0 to 100), Wild oat (wild oat; Rate 16 g/ha): 30 | Plant response rating, Sugar beet (sugar beet; POSTEMERGENCE, Rate 50 g/ha): 10 | Plant response rating, Sugar beet (sugar beet; PREEMERGENCE, Rate 50 g/ha): 9 | Plant response rating, Sugar beet (sugar beet; Rate 200 g/ha, POSTEMERGENCE): 10 | Plant response rating, Sugar beet (sugar beet; Rate 200 g/ha, PREEMERGENCE): 10 | Plant response rating, Giant foxtail (giant foxtail; POSTEMERGENCE, Rate 50 g/ha): 6 | Plant response rating, Giant foxtail (giant foxtail; PREEMERGENCE, Rate 50 g/ha): 6 | Plant response rating, Giant foxtail (giant foxtail; Rate 200 g/ha, POSTEMERGENCE): 9 | Plant response rating, Giant foxtail (giant foxtail; Rate 200 g/ha, PREEMERGENCE): 9
